Measurements from US20190211317A1, “PEPTIDES AND NANOPARTICLES FOR INTRACELLULAR DELIVERY OF GENOME-EDITING MOLECULES” (Aadigen, LLC, priority 2016, published 2019).
Several values for one entry are separate records, joined by “and”; a condition that tells them apart may be missing. Equal values may be shown once. Read-outs that look alike come from different tables or passages of the source.

Columns and labels:
[1] = system: exogenous eGFP gene reporter in eGFP-U2OS cell line; settings: 72 h
Experimental: Both lipofectamine 2000 and RNAiMAX delivery methods were included as controls. eGFP-U2OS cells were cultured in Dulbecco's Modified Eagle's Medium (DMEM), supplemented with 2 mM glutamine, 1% antibiotics (streptomycin 10,000 μg/mL, penicillin, 10,000 IU/mL) and 10% (w/v) foetal calf serum (FCS), at 37° C. in a humidified atmosphere containing 5% CO2. A total of 150,000 cells seeded in a 35 mm dish the day prior to transfection were grown to 50-60% confluence and overlaid with 200 μl of preformed complexes, incubated for 5 min, then 400 μl of DMEM was added. After 20 min incubation at 37° C., 1 mL of fresh DMEM containing 16% FCS was added in order to reach a final FCS concentration of 10%, without removing the overlay of complexes. Cells were returned to the incubator for 72 hours.

[2] = system: endogenous EMX1, AAVS and HPRT genes in Mouse (ESF-158) embryonic stem cells; experiment: Delivery of multiple RGEN:gRNA complexes: EMX1, AAVS, HPRT editing in mouse ES cells (T7E1); type: cell-based
Experimental: RNAiMAX delivery method was used as a positive control.
U2OS cells were treated as described previously. H9 embryonic stem cells were cultured in Dulbecco's modified Eagle's medium with 4 mM L-glutamine adjusted to contain 1.5 g/L sodium bicarbonate and 4.5 g/L glucose and supplemented with 0.1 mM 2-mercaptoethanol, 85%; and 15% ES-Cell Qualified fetal bovine serum. […] CAS9-induced double-strand break formation followed by repair through NHEJ was analyzed 72 hr after transfection by T7E1 assay and quantified using Fragment Analyzer System. The deletion (indel) frequencies in EMX1, AAVS and HPRT genes were quantified using T7E1 assay. Data for on-target mutations induced by RGEN:gRNA are reported as an average of 3 separate experiments.

[3] = system: endogenous EMX1 gene in U2OS, JURKAT and K562 cells; experiment: EMX1 gene editing from CPP delivery of CAS9/gRNA (T7E1 assay); type: cell-based, human
Experimental: RNAiMAX delivery was used as a positive control as it was previously reported to show better results than Lipofectamine 2000 (Zuris et al., 2015, supra). […] Cells were returned to the incubator for 72 hours.

PCSK9 = experiment: In vivo CAS9 mRNA/gRNA targeting PCSK9: serum PCSK9 (ELISA); set-up: species or system mouse
Experimental: Polyadenylated and capped CAS9 mRNA was obtained from ThermoFisher, and gRNA (5 μg) targeting PCSK9 Exon 1 was obtained from Eurogentec. […] Free CAS9 mRNA/gRNA was injected as a control.
Blood samples were collected by saphenous vein bleeds at multiple time points (day 3, 6, 10, and 21), collecting no more than 100 μl or 10% of total blood volume per week. Serum levels of PCSK9 were determined by ELISA using the Mouse Proprotein Convertase 9/PCSK9 Quantikine ELISA Kit (MPC-900, R&DSystems).

[4] = system: U2OS, HEPG2, K562 cells and primary human fibroblasts; experiment: CAS9 protein expression after CPP delivery of CAS9 mRNA (ELISA); type: cell-based; settings: day 3
Experimental: CPP/CAS9 mRNA complexes were formed by mixing the CAS9 mRNA (0.5 μg) with CPP at a 20:1 molar ratio of CPP:CAS9 mRNA and incubating for 30 min at 37° C. prior to cell transfection. Cells were transfected according to optimized protocols for either adherent or suspension cell lines.
Human primary fibroblasts were freshly obtained and grown in flasks pre-coated with a gelatin-based coating solution and incubated in Culture Complete Growth Medium for 3 days before expansion and treatment. U2OS cells were cultured in Dulbecco's Modified Eagle's Medium (DMEM), supplemented with 2 mM glutamine, 1% antibiotics (streptomycin 10,000 μg/mL, penicillin, 10,000 IU/mL) and 10% (w/v) foetal calf serum (FCS), at 37° C. in a humidified atmosphere containing 5% CO2. 35 mm dishes seeded with 150,000 cells the day prior to transfection were grown to 50-60% confluence and set up to be at about 70% confluences at the time of transfection. Before transfection, cells were washed with DMEM (2×) followed by PBS (1×). Cells were then overlaid with 0.2 ml of complex solution (16 μl CPP/Cargo complex in water+184 μl OPTiMEM without antibiotics), mixed gently, and incubated for 10 min at 37° C. 0.8 mL of fresh OPTiMEM or DMEM was then added and cells were incubated for 20 min at 37° C. 2 mL of complete OPTiMEM (high glucose) or DMEM containing 11.4% FCS was then added in order to reach a final FCS concentration of 10%, without removing the overlay of CPP/Cargo complexes. Cells were returned to the incubator (37° C., 5% CO2) and assayed at 72 hours post transfection.
K562 and HEpG2 cells were set up to be at about 70% confluence at the time of transfection. The cells were maintained in high glucose DMEM media with 10% serum. Before transfection, cells were harvested by centrifugation, then washed with DMEM (2×) followed by PBS (1×). Cells were then resuspended in 0.2 ml of complex solution (16 μl CPP/Cargo complex in water+184 μl OPTiMEM without antibiotics), mixed gently, and incubated for 10 min at 37° C. 0.8 mL of fresh OPTiMEM was then added and cells were incubated for 20 min at 37° C. 2 mL of complete OPTiMEM (high glucose) containing 11.4% FCS was then added in order to reach a final FCS concentration of 10%, without removing the overlay of CPP/Cargo complexes. Cells were returned to the incubator (37° C., 5% CO2) and assayed at 72 hours post transfection.
RNAiMAX lipid-based delivery (Invitrogen Thermo Fisher France) was used as a control and transfections were performed following the manufacturer's instructions. CAS9 expression level was analyzed at multiple time points over a period of 10 days as determined by ELISA on protein extracts using antibodies against CRISPR/Cas9 obtained from Diagenode (Diagenode cat. No. C15200223) and ABCAM (clone 7A9-ab191468).

[5] = system: endogenous EMX1 and HPRT genes in primary human cardiac fibroblasts and primary human hepatocytes; experiment: EMX1 and HPRT editing in primary human cells (T7E1 assay); type: cell-based; settings: for mean indel frequencies: both genes
Experimental: ADGN-100 peptides were also evaluated for cellular delivery of multiple RGEN:gRNA complexes targeting endogenous EMX1 and HPRT genes in primary human cardiac fibroblasts and primary human hepatocytes. The CAS9/gRNA complexes contained either CAS9 protein or mRNA encoding the CAS9 protein and a gRNA targeting either EMX1 or HPRT. Human primary cardiac fibroblasts and human primary hepatocytes were freshly obtained and grown in flasks pre-coated with a gelatin-based coating solution and incubated in Culture Complete Growth Medium for 3 days before expansion and treatment. […] Non-Homologous End Joining (NHEJ) was analyzed 72 hours after transfection by the T7E1 assay and compared to delivery using RNAiMAX lipid methods. The toxicity was analyzed for all conditions using the MTT assay.
CAS9 protein was preloaded with purified gRNA-GFP at a molar ratio of 1:1 and incubated for 10 min prior to forming complexes with ADGN peptides.
The following protocol was used for both cell types. Cells were cultured to about 70% confluence at the time of transfection. Cells were maintained in high glucose DMEM media with 10% serum. Before transfection, cells were washed with DMEM twice and resuspended in 0.2 ml of complex solution (16 μl complex+184 μl OPTiMEM) mixed gently and incubated for 10 min at 37° C. 0.8 mL of fresh OPTiMEM (high glucose) was added and cells were incubated for 20 min at 37° C. […] Cells were returned to the incubator at 37° C. and assayed at 72 hours post transfection.
As a positive control, complexes were delivered using RNAiMAX (Invitrogen Thermo Fisher). CAS9-induced double-strand break formation followed by repair throughout the non-homologous end joining (NHEJ) system was analyzed at 72 hours by the T7E1 assay and quantified using a Fragment Analyzer System. The indel frequencies reported for the EMX1 and HPRT genes are an average of 3 separate experiments. Cytotoxicity was analyzed using the MTT assay.

[6] = system: endogenous EMX1 gene in U2OS, HEPG2, K562 cells and primary human fibroblasts; experiment: EMX1 editing from CPP delivery of CAS9 protein/gRNA (T7E1); type: cell-based; settings: each of the cell types tested; 2.5 μg/5 μg CAS9/gRNA
Experimental: CPP/CAS9/gRNA complexes were prepared by mixing preloaded CAS9/gRNA complexes (2.5 μg/5 μg CAS9/gRNA) with CPP peptides at a 20:1 molar ratio of CPP to cargo and incubating for 30 min at 37° C. prior to cell transfection. Cells were transfected according to the protocols described in Example 13a, and RNAiMAX-mediated delivery (Invitrogen Thermo Fisher France) was used as a control. EMX1 gene editing was analyzed at day 3 and day 6 by T7E1 assay and quantified using a Fragment Analyzer System.

[7] = system: primary human fibroblasts and primary human hepatocytes; experiment: Toxicity of ADGN-100a/CAS9/gRNA in primary cells (MTT assay); type: cell-based; settings: both primary cell types
Experimental: Cytotoxic response was measured 24 hours later by colorimetric MTT assay (Sigma, Germany). For MTT assay, cell culture medium was removed and replaced with PBS containing 2.5 mg/ml of MTT for 4 hours.

[8] = system: endogenous EMX1 and exogenous EGFP reporter genes in GFP-U2OS, EGFP-JURKAT cells; experiment: Delivery of multiple RGEN/gRNA complexes: EMX1 and EGFP editing; type: cell-based, human
Experimental: RNAiMAX delivery was used as positive control. Cells were treated as described previously and CAS9-induced NHEJ analyzed 72 hr after transfection. […] The deletion (indel) frequency in the EMX1 gene was quantified using the T7E1 assay and loss of EGFP expression was monitored by flow cytometry. Data for on-target mutations induced by RGEN/gRNA are reported as an average of 3 separate experiments.

Swiss mice = experiment: In vivo delivery of CAS9 mRNA by three CPPs: CAS9 expression in tissues (ELISA); set-up: species or system mouse
Experimental: Free CAS9 mRNA in physiological buffer was injected as a control.
At day 3, day 6, and day 10 following injection, animals were sacrificed and tissues including lung, liver, brain, kidney, heart, spleen, blood, pancreas, muscle, bone marrow, and intestine were collected. Tissues were homogenized and CAS9 protein levels in protein extracts were analyzed by ELISA using an antibody against CRISPR/Cas9 (SBI clone 7A9).

[9] = system: hPD1 gene in human T cells; experiment: Simultaneous delivery of CAR plasmid and CAS9/gRNA: hPD1 editing (T7E1); type: cell-based; settings: for mean indel frequency: two donors
Experimental: Cells were incubated for 5 min, then 300 μl of serum free RPMI-1640 medium was added. After 30 min, 1.2 mL of full medium was added and serum level was adjusted to 10%. As control, CAS9 loaded with gRNA targeting GFP was used. For comparison with electroporation methods, cells were transfected with the anti-CD-19 CAR plasmid (5 μg) and gRNA/CAS9 (5 μg/10 μg) using Nucleofector 2b (Lonza, Germany) with the Amaxa Human T cells Nucleofector Kit, VPA-1002 (Lonza, Germany).
On day 5, the level of transduced and untransduced cells was analyzed, and cells were transferred to fresh T cell expansion medium. The cultures were analyzed for viability and anti-CD19 CAR expression by flow cytometry. The expression of the anti-CD19 CAR in the T cells was evaluated by flow cytometry using a Protein L assay. […] 7-AAD (Sigma) was used to determine viability. CAS9-induced double-strand break followed by repair through NHEJ system was analyzed by either the T7E1 assay or using the Genome Cleavage Detection kit (GCD Thermo Fisher) and quantified using Fragment Analyzer System. The indel frequency in the target gene was quantified using the T7E1 assay. The cultures were expanded and analyzed for viability, anti-CD19 expression and PD I level every 10 days. T cell expansion medium contained AIM V medium, supplemented with 5% heat-inactivated human AB Serum, 1% Gluta-Max, and 300 IU/mL IL-2.

CC(C)C[C@H](NC(=O)[C@H](CCCNC(=N)N)NC(=O)[C@H](Cc1c[nH]c2ccccc12)NC(=O)[C@H](CCCNC(=N)N)NC(=O)[C@H](Cc1c[nH]c2ccccc12)NC(=O)CNC(=O)[C@H](C)NC(=O)[C@H](CO)NC(=O)[C@H](CCCNC(=N)N)NC(=O)[C@H](Cc1c[nH]c2ccccc12)NC(=O)[C@H](CCCCN)NC(=O)CCN)C(=O)N[C@@H](Cc1c[nH]c2ccccc12)C(=O)N[C@@H](CCCNC(=N)N)C(=O)N[C@H](C(=O)N[C@@H](CCCNC(=N)N)C(=O)N[C@@H](CO)C(=O)N[C@@H](Cc1c[nH]c2ccccc12)C(=O)N[C@@H](CO)C(=O)N[C@@H](CCCNC(=N)N)C(=O)O)C(C)C [ADGN-100a]
decrease in EGFP expression ([1]; CAS9 mRNA/gRNA (0.5 μg/5 μg)): 85%
decrease in EGFP expression ([1]; CAS9 protein/gRNA (2.5 μM/5 μM)): 87%
Mean indel Frequency ± S.E.M ([2]; AAVS): 71 ± 5%
Mean indel Frequency ± S.E.M ([2]; EMX1): 75 ± 5%
Mean indel Frequency ± S.E.M ([2]; HPRT): 70 ± 4%
Mean indel Frequency ± S.E.M ([3]; JURICAT, CAS9/sgRNA 25 nM): 65% and 65 ± 5%
Mean indel Frequency ± S.E.M ([3]; JURKAT, CAS9/sgRNA 50 nM): 68 ± 6%
Mean indel Frequency ± S.E.M ([3]; K562, CAS9/sgRNA 25 nM): 71% and 71 ± 8%
Mean indel Frequency ± S.E.M ([3]; K562, CAS9/sgRNA 50 nM): 74 ± 4%
Mean indel Frequency ± S.E.M ([3]; U2OS, CAS9/sgRNA 25 nM, 20:1): 67% and 67 ± 5%
Mean indel Frequency ± S.E.M ([3]; U2OS, CAS9/sgRNA 50 nM): 72 ± 8%
decrease of serum levels of PSCK9 (PCSK9; day 1, CAS9 mRNA 5 μg/gRNA 5 μg single i.v.): 51%
decrease of serum levels of PSCK9 (PCSK9; day 3): 62%
decrease of serum levels of PSCK9 (PCSK9; day 6): 69%
decrease of serum levels of PSCK9 (PCSK9; day 10): 65%
decrease of serum levels of PSCK9 (PCSK9; day 14): 65%
decrease of serum levels of PSCK9 (PCSK9; day 20): 60%
ELISA signal for CAS9 protein expression ([4]; U2OS, K562, HepG2, CAS9 mRNA 0.5 μg): about 25 times the background
ELISA signal for CAS9 protein expression ([4]; primary human fibroblasts): about 20 times the background
more potent than RNAiMAX [5]: 3-4 folds
Mean indel Frequency ± S.E.M ([5]; EMX1, Fibroblasts, 20 nM): 65 ± 4%
Mean indel Frequency ± S.E.M ([5]; EMX1, Fibroblasts, 50 nM): 67 ± 5%
Mean indel Frequency ± S.E.M ([5]; EMX1, Fibroblasts, CAS9/sgRNA 10 nM): 61 ± 5%
Mean indel Frequency ± S.E.M ([5]; EMX1, Hepatocytes, 10 nM): 55 ± 6%
Mean indel Frequency ± S.E.M ([5]; EMX1, Hepatocytes, 20 nM): 58 ± 5%
Mean indel Frequency ± S.E.M ([5]; EMX1, Hepatocytes, 50 nM): 61 ± 5%
Mean indel Frequency ± S.E.M ([5]; HPRT (printed HPR/HPRI), Fibroblasts, 10 nM): 62 ± 5%
Mean indel Frequency ± S.E.M ([5]; HPRT, Fibroblasts, 20 nM): 68 ± 4%
Mean indel Frequency ± S.E.M ([5]; HPRT, Fibroblasts, 50 nM): 70 ± 5%
Mean indel Frequency ± S.E.M ([5]; HPRT, Hepatocytes, 10 nM): 54 ± 6%
Mean indel Frequency ± S.E.M ([5]; HPRT, Hepatocytes, 20 nM): 56 ± 5%
Mean indel Frequency ± S.E.M ([5]; HPRT, Hepatocytes, 50 nM): 57 ± 5%
mean indel frequencies ([5]; primary fibroblasts, 20 nM): more than 60%
mean indel frequencies ([5]; primary hepatocytes, 20 nM): > 55%
mean indel frequencies [6]: 60-65%
toxicity [7]: less than 10%
Mean indel Frequency ± S.E.M ([8]; JURKAT, EGFP): 78 ± 4%
Mean indel Frequency ± S.E.M ([8]; JURKAT, EMX1): 76 ± 7%
Mean indel Frequency ± S.E.M ([8]; U2OS, EGFP, 25 nM each complex): 77 ± 6%
Mean indel Frequency ± S.E.M ([8]; U2OS, EMX1): 72 ± 8%
CAS9 expression (Swiss mice; day 10, liver): CAS9 expression was observed
ELISA signal for CAS9 protein expression (Swiss mice; liver, day 3 and day 6, CAS9 mRNA 5 μg i.v., 20:1): greater than 20 times that of background
CAS9 protein expression (Swiss mice; other tissues examined): Little to no increase
Mean indel Frequency ± s.e.m ([9]; Donor 1, CAS9/sgRNA 2.5 μg/5 μg): 44 ± 5%
Mean indel Frequency ± s.e.m ([9]; Donor 1, CAS9/sgRNA 5 μg/10 μg): 50 ± 3%
Mean indel Frequency ± s.e.m ([9]; Donor 2, CAS9/sgRNA 2.5 μg/5 μg): 42 ± 3%
Mean indel Frequency ± s.e.m ([9]; Donor 2, CAS9/sgRNA 5 μg/10 μg): 51 ± 8%
mean indel frequency ([9]; 2.5 μg/5 μg CAS9/gRNA): approximately 42%
mean indel frequency ([9]; 5 μg/10 μg CAS9/gRNA): approximately 50%
